Counter-ions that a name gives are not always drawn.
Key:
TEM-1 = biological target: T1, TEM-1 (Escherichia coli, UniProt P62593); experiment: β-lactamase inhibitory activity, determination of IC50 (nitrocefin hydrolysis); type: biochemical
T1 construct: made in house; host or cells: E. coli

SHV-1 = biological target: T2, SHV-1 (Klebsiella pneumoniae, UniProt P0AD64); experiment: as above; type: biochemical
T2 construct: made in house; host or cells: E. coli

CTX-M-15 = biological target: T3, CTX-M-15 (Escherichia coli, UniProt Q9EXV5); experiment: as above; type: biochemical; conditions: class (A); nitrocefin 200 μM, 30 min pre-incubation; read-out: IC50 β-lactamase CTX-M-15
T3 construct: made in house; host or cells: E. coli

KPC-2 = biological target: T4, KPC-2 (Klebsiella pneumoniae, UniProt Q9F663); experiment: as above; type: biochemical; conditions: class (A); nitrocefin 200 μM, 30 min pre-incubation; read-out: IC50 β-lactamase KPC-2
T4 construct: made in house; host or cells: E. coli

OXA-1 = biological target: T5, OXA-1 (Escherichia coli, UniProt P13661); experiment: as above; type: biochemical; conditions: class (D); nitrocefin 200 μM, 30 min pre-incubation; read-out: IC50 β-lactamase OXA-1
T5 construct: made in house; host or cells: E. coli

OXA-11 = biological target: T6, OXA-11 (Pseudomonas aeruginosa, UniProt Q06778); experiment: as above; type: biochemical
T6 construct: made in house; host or cells: E. coli

OXA-15 = biological target: T7, OXA-15 (Pseudomonas aeruginosa, UniProt Q51574); experiment: biochemical
T7 construct: made in house; host or cells: E. coli

OXA-48 = biological target: T8, OXA-48 (Klebsiella pneumoniae, UniProt Q6XEC0); experiment: β-lactamase inhibitory activity, determination of IC50 (nitrocefin hydrolysis); type: biochemical; conditions: class (D); nitrocefin 200 μM, 30 min pre-incubation; read-out: IC50 β-lactamase OXA-48
T8 construct: made in house; host or cells: E. coli

E. cloacae P99 (AmpC) = experiment: MIC of compounds alone, broth microdilution; type: cell-based; conditions: Enterobacter cloacae; strain P99 (E. cloacae); read-out: MIC compounds of the invention alone
Experimental: (§1) Method 2: MIC of Compounds and Synergy with Ceftazidime Against Bacterial Isolates (Table 2 and 3)
(§2) Compounds of the present invention were assessed against genotyped bacterial strains alone or in combination with the β-lactam ceftazidime (CAZ). In the assays, MICs of said compounds, or of ceftazidime at fixed concentrations of said compounds were determined by the broth microdilution method according to the Clinical Laboratory Standards Institute (CLSI-M7-A7). Briefly, compounds alone according to the invention were prepared in DMSO and spotted (2 μL each) on sterile polystyrene plates (Corning, 3788). Compounds and ceftazidime dilutions were prepared in DMSO and spotted (1 μL each) on sterile polystyrene plates (Corning, 3788). Log phase bacterial suspensions were adjusted to a final density of 5×10^5 cfu/mL in cation-adjusted Mueller-Hinton broth (Becton-Dickinson) and added to each well (98 μL). Microplates were incubated for 16-20 h at 35° C. in ambient air. The MIC of the compounds was defined as the lowest concentration of said compounds that prevented bacterial growth as read by visual inspection. The MIC of ceftazidime at each compound concentration was defined as the lowest concentration of ceftazidime that prevented bacterial growth as read by visual inspection.

[1] = tested on: E. coli 131119 (TEM-1, OXA-48); experiment: MIC of compounds alone, broth microdilution; type: cell-based; conditions: Escherichia coli; strain 131119 (E. coli); read-out: MIC compounds of the invention alone
Experimental: as §1, §2

[2] = tested on: E. coli 190317 (TEM-1, SHV-12, CTX-M-15, OXA-1); experiment: MIC of compounds alone, broth microdilution; type: cell-based; conditions: Escherichia coli, read-out: MIC compounds of the invention alone
Experimental: as §1, §2

E. coli RGN238 (OXA-1) = experiment: MIC of compounds alone, broth microdilution; type: cell-based; conditions: Escherichia coli; strain RGN238 (E. coli); read-out: MIC compounds of the invention alone
Experimental: as §1, §2

[3] = tested on: K. pneumoniae 6299 (TEM-1, SHV-11, OXA-163); experiment: MIC of compounds alone, broth microdilution; type: cell-based; conditions: Klebsiella pneumoniae; strain 6299 (K. pneumoniae); read-out: MIC compounds of the invention alone
Experimental: as §1, §2

[4] = tested on: K. pneumoniae BAA-1898 (TEM-1, SHV-11, SHV-12, KPC-2); experiment: MIC of compounds alone, broth microdilution; type: cell-based; conditions: Klebsiella pneumoniae, BAA1898; strain BAA-1898 (K. pneumoniae); read-out: MIC compounds of the invention alone
Experimental: as §1, §2

[5] = tested on: P. aeruginosa CIP107051 (TEM-24); experiment: MIC of compounds alone, broth microdilution; type: cell-based; conditions: Pseudomonas aeruginosa; strain CIP107051 (P. aeruginosa); read-out: MIC compounds of the invention alone
Experimental: as §1, §2

AmpC (P99) = AmpC (P99) (Enterobacter cloacae, UniProt P05364); experiment: β-lactamase inhibitory activity, determination of IC50 (nitrocefin hydrolysis)
AmpC P. aeruginosa = AmpC P. aeruginosa (Pseudomonas aeruginosa, UniProt P24735); experiment: as above
Sequence of AmpC P. aeruginosa (P24735 27-397): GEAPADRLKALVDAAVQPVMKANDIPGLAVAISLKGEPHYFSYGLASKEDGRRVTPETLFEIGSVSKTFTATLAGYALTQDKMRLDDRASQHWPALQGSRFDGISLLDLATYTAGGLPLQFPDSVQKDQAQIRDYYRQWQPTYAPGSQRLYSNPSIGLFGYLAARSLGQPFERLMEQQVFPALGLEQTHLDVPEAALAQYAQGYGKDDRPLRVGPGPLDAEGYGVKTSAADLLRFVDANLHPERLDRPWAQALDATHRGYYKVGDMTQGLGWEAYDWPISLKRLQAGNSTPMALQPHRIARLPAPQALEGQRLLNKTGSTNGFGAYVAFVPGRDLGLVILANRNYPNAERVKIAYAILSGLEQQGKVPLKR

T5 sequence (P13661 26-276): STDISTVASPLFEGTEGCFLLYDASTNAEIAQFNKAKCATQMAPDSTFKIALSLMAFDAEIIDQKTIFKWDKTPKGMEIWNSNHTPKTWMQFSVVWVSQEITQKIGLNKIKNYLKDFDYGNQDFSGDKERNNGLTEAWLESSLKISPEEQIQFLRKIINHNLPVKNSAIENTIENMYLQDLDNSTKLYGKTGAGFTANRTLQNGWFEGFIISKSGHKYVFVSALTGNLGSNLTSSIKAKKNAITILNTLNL
T4 sequence (Q9F663 25-293 limits assumed): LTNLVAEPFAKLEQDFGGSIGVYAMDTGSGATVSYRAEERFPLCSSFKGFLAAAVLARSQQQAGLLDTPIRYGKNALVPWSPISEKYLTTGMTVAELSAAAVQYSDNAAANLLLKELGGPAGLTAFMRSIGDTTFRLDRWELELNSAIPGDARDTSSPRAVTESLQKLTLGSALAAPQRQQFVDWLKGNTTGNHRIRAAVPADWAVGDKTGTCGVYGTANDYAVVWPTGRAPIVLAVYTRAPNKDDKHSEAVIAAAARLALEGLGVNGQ
T7 sequence (Q51574 22-275): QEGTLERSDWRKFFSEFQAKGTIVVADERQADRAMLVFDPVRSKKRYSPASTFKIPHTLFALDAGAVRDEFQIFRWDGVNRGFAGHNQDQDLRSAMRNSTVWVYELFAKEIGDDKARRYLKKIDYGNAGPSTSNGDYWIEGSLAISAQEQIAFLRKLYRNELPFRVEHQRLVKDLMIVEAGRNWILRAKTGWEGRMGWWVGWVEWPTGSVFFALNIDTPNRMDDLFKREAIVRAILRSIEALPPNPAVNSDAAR
T6 sequence (Q06778 21-266): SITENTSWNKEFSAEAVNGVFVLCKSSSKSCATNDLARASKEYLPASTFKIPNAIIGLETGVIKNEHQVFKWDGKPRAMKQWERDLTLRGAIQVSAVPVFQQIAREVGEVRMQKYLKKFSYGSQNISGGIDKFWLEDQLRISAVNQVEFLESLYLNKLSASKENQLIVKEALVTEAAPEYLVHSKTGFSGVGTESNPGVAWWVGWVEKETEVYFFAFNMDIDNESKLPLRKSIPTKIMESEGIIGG
T1 sequence (P62593 24-286 limits assumed): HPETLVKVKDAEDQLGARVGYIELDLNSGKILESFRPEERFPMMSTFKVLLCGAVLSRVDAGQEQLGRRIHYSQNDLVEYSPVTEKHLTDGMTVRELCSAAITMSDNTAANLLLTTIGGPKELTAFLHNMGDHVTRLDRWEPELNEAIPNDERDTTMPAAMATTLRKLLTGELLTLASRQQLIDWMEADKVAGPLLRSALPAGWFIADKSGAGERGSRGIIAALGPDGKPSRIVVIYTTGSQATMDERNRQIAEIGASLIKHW
T8 sequence (Q6XEC0 23-265 limits assumed): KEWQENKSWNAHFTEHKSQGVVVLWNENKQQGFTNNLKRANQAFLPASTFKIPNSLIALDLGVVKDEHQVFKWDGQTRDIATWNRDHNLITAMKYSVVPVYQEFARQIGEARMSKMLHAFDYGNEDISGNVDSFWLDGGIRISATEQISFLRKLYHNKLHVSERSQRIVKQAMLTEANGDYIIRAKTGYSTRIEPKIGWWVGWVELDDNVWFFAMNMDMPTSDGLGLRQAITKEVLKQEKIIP
Sequence of AmpC (P99) (P05364 21-381): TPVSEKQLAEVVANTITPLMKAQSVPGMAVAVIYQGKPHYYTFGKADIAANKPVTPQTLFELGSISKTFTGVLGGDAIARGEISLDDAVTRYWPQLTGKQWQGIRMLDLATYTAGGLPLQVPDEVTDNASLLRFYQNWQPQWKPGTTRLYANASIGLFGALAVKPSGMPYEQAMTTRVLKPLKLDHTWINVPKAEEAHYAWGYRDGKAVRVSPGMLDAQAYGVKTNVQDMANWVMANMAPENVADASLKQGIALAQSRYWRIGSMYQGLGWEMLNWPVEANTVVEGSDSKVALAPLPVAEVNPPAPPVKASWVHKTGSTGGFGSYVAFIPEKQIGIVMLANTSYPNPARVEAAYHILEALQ
T2 sequence (P0AD64 22-286): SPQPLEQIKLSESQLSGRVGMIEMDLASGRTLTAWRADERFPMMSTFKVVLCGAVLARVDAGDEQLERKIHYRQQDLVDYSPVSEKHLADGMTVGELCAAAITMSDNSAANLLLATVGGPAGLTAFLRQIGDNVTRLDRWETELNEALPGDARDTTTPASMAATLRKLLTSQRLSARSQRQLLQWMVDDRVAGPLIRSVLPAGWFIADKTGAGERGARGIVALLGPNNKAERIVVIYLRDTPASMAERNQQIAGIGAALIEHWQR
T3 sequence (Q9EXV5 entry or part of it): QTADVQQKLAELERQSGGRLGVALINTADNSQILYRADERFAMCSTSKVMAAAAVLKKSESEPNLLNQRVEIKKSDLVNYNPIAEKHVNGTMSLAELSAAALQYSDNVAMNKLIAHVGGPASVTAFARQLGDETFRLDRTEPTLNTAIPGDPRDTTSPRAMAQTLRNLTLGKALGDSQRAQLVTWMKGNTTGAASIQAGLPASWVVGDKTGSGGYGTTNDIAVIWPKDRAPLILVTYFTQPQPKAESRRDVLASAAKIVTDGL

SMILES	IC50 (TEM-1)	IC50 (SHV-1)	IC50 (CTX-M-15)	IC50 (KPC-2)	IC50 (OXA-1)	IC50 (OXA-11)	IC50 (OXA-15)	IC50 (OXA-48)	MIC (E. cloacae P99 (AmpC))	MIC [1]	MIC [2]	MIC (E. coli RGN238 (OXA-1))	MIC [3]	MIC [4]	MIC [5]	IC50 (AmpC (P99))	IC50 (AmpC P. aeruginosa)
Cn1cc(C2=CCN3CC2N(OS(=O)(=O)[O-])C3=O)c(=O)n(C)c1=O.[Na+] (stereo not shown) [Example 23, Sodium [4-(1,3-dimethyluracil-5-yl)-7-oxo-1,6-diazabicyclo[3.2.1]oct-3-en-6-yl] sulfate]	1.5 nM	3.1 nM	12 nM	97 nM	870 nM	2200 nM	110 nM	4.8 nM	> 32 µg/mL	32 µg/mL	> 32 µg/mL	> 32 µg/mL	> 32 µg/mL	> 32 µg/mL	> 32 µg/mL	580 nM	1600 nM
Cn1cnc(C2=CCN3CC2N(OS(=O)(=O)[O-])C3=O)cc1=O.[Na+] (stereo not shown) [Example 20, Sodium [4-(N-methyl-6-oxo-pyrimidin-4-yl)-7-oxo-1,6-diazabicyclo[3.2.1]oct-3-en-6-yl] sulfate]	1 nM	6.7 nM	3.5 nM	87 nM	1900 nM	430 nM	94 nM	2.2 nM	32 µg/mL	32 µg/mL	8 µg/mL	> 32 µg/mL	> 32 µg/mL	> 32 µg/mL	> 32 µg/mL	1900 nM	3200 nM
NCc1ncc(C2=CCN3CC2N(OS(=O)(=O)O)C3=O)s1 (stereo not shown) [Example 32, [4-[2-(aminomethyl)thiazol-5-yl]-7-oxo-1,6-diazabicyclo[3.2.1]oct-3-en-6-yl] hydrogen sulfate]	7.5 nM	33 nM	14 nM	300 nM	670 nM	3500 nM	170 nM	8.9 nM	16 µg/mL	> 32 µg/mL	8 µg/mL	> 32 µg/mL	> 32 µg/mL	> 32 µg/mL	> 32 µg/mL	4400 nM	3200 nM
O=C1N2CC(c3nc4ccccc4s3)=CC(C2)N1OS(=O)(=O)[O-].[Na+] (stereo not shown) [Example 27, Sodium [3-(1,3-benzothiazol-2-yl)-7-oxo-1,6-diazabicyclo[3.2.1]oct-3-en-6-yl] sulfate]	0.21 nM	2.1 nM	1.4 nM	2.7 nM	560 nM	150 nM	99 nM	6.4 nM	> 32 µg/mL	> 32 µg/mL	> 32 µg/mL	> 32 µg/mL	> 32 µg/mL	> 32 µg/mL	> 32 µg/mL	9.1 nM	68 nM
O=C1N2CC=C(c3cscn3)C(C2)N1OS(=O)(=O)[O-].[Na+] (stereo not shown) [Example 31, sodium [4-(thiazol-4-yl)-7-oxo-1,6-diazabicyclo[3.2.1]oct-3-en-6-yl] sulfate]	4.9 nM	11 nM	5.5 nM	360 nM	1100 nM	990 nM	97 nM	2.3 nM	16 µg/mL	16 µg/mL	16 µg/mL	> 32 µg/mL	> 32 µg/mL	> 32 µg/mL	> 32 µg/mL	940 nM	1500 nM
Cn1nc(C2=CCN3CC2N(OS(=O)(=O)[O-])C3=O)ccc1=O.[Na+] (stereo not shown) [Example 17, Sodium [4-(1-methyl-6-oxo-pyridazin-3-yl)-7-oxo-1,6-diazabicyclo[3.2.1]oct-3-en-6-yl] sulfate]	1.2 nM	2.8 nM	5.7 nM	130 nM	330 nM	1400 nM	57 nM	3.9 nM	16 µg/mL	16 µg/mL	4 µg/mL	32 µg/mL	> 32 µg/mL	> 32 µg/mL	> 32 µg/mL	2300 nM	910 nM
Cn1cc(C2=CC3CN(C2)C(=O)N3OS(=O)(=O)[O-])ccc1=O.[Na+] (stereo not shown) [Example 28, Sodium [3-(1-methyl-6-oxo-3-pyridyl)-7-oxo-1,6-diazabicyclo[3.2.1]oct-3-en-6-yl] sulfate]	1.6 nM	3.8 nM	4.4 nM	6.5 nM	1000 nM	430 nM	18 nM	54 nM	> 32 µg/mL	> 32 µg/mL	> 32 µg/mL	> 32 µg/mL	> 32 µg/mL	> 32 µg/mL	> 32 µg/mL	77 nM	520 nM
Cn1c(C2=CCN3CC2N(OS(=O)(=O)[O-])C3=O)cccc1=O.[Na+] (stereo not shown) [Example 18, Sodium [4-(N-methyl-6-oxo-2-pyridyl)-7-oxo-1,6-diazabicyclo[3.2.1]oct-3-en-6-yl] sulfate]	2.7 nM	11 nM	17 nM	1800 nM	35 nM	540 nM	14 nM	20 nM	16 µg/mL	> 32 µg/mL	> 32 µg/mL	> 32 µg/mL	> 32 µg/mL	> 32 µg/mL	> 32 µg/mL	230 nM	2700 nM
Cn1cccc(C2=CCN3CC2N(OS(=O)(=O)[O-])C3=O)c1=O.[Na+] (stereo not shown) [Example 16, Sodium [4-(N-methyl-2-oxo-3-pyridyl)-7-oxo-1,6-diazabicyclo[3.2.1]oct-3-en-6-yl] sulfate]	56 nM	120 nM	100 nM	4500 nM	720 nM	7400 nM	27 nM	10 nM	> 32 µg/mL	> 32 µg/mL	> 32 µg/mL	> 32 µg/mL	> 32 µg/mL	> 32 µg/mL	> 32 µg/mL	7300 nM	7100 nM
COc1ncc(C2=CCN3CC2N(OS(=O)(=O)[O-])C3=O)cn1.[Na+] (stereo not shown) [Example 24, Sodium [4-(2-methoxypyrimidin-5-yl)-7-oxo-1,6-diazabicyclo[3.2.1]oct-3-en-6-yl] sulfate]	12 nM	20 nM	14 nM	160 nM	380 nM	1200 nM	48 nM	3.6 nM	> 32 µg/mL	> 32 µg/mL	16 µg/mL	> 32 µg/mL	> 32 µg/mL	> 32 µg/mL	> 32 µg/mL	1100 nM	1400 nM
O=C1N2CC=C(c3ccncc3)C(C2)N1OS(=O)(=O)[O-].[Na+] (stereo not shown) [Example 7, Sodium [4-(4-pyridyl)-7-oxo-1,6-diazabicyclo[3.2.1]oct-3-en-6-yl]sulfate]	12 nM	30 nM	13 nM	150 nM	250 nM	2300 nM	95 nM	4.9 nM	> 32 µg/mL	> 32 µg/mL	8 µg/mL	> 32 µg/mL	> 32 µg/mL	> 32 µg/mL	> 32 µg/mL	1700 nM	2200 nM

Source: US10183943B2, “Heterocyclic compounds and their use in preventing or treating bacterial infections” (MUTABILIS, priority 2015, dated 2019)
